The structures appear in SMILES notation.

Data set [1] deals with HSV-1 and HSV-2. Type of data set: cell-based. Particulars: summary.
The test system of data set [2] is Flow 1000 cells (foreskin cells). Conditions: 25 mg/ml, 48 hours, 37° C. Here is the method: (§1) Healthy confluent monolayer cell cultures were overlaid with 1 ml of the drug and incubated for 48 hours at 37° C. and then stained. Cell cultures with maintenance media were used as controls.
For data set [3], the system named is RK-13 cells. Particulars: 25 mg/ml, 48 hours, 37° C. Here is the method:
as §1

Data set [4] has as its system Vero cells. Conditions: 25 mg/ml, 48 hours, 37° C. As for the experimental part:
as §1

The subject of data set [5] is HSV-2 (333 strain). The experiment in a line: Plaque inhibition by HMB, HSV-2 333 strain in Vero cells (third series, Experiments 1M-1P). Type of data set: cell-based. As for the experimental part: In this experiment, 25 mg/ml HMB was tested on Vero cells infected with HSV-2. The virus control cultures, without HMB, had 705 plaque.
The number of plaque on the virus control was about 10 to 12 plaque.
In this experiment, 25 mg/ml, 20 mg/ml, and 15 mg/ml of HMB concentrations were tested on Vero cells infected with HSV-2. […] The experimental flasks had as many, or more, plaque as the control, with an average of 154 plaque for the control and 169 plaque for the HMB-treated flasks.
HMB was further tested at a concentration of 20 mg/ml of reinfected Vero cells.

As usually defined, the inhibition is the drop in the measured response relative to a control, in per cent. Take `C[N+](C)(C)CCCCCC[N+](C)(C)C` [HMB, hexamethonium bromide]: in data set [1], the “in vitro replication of HSV-1 and HSV-2” value is “inhibit the in vitro replication of HSV-1 and HSV-2”. The toxicity entry is given as “no toxicity” in data set [2], “slight toxicity” in data set [3] and “no toxicity” in data set [4]. Moreover, the “appearance of cell layer” value in data set [5] (Exp. 1M, 25 mg/ml HMB) is on record as “thin cell layer”. Besides, the number of plaque is 142 plaque in data set [5] (Exp. 1M, 25 mg/ml HMB, control 705); “no plaque” in data set [5] (Exp. 1O, 20 mg/ml HMB); “no plaque” in data set [5] (Exp. 1O, 25 mg/ml HMB, most likely due to toxicity). The inhibition of plaque result in data set [5] (Exp. 1N, 20 mg/ml HMB, control about 10 to 12 plaque) was “complete inhibition of plaque”. Moreover, the effect on plaque entry in data set [5] (Exp. 1O, 15 mg/ml HMB) was “did not have any effect”. Besides, in data set [5] (Exp. 1O, 15 mg/ml HMB, control 154), the “average number of plaque” value came to 169 plaque. The “toxicity to the monolayer” value in data set [5] (Exp. 1O, 25 mg/ml HMB) is “toxic to the monolayer”. Moreover, in data set [5] (Human alphaherpesvirus 2, Vero, Exp. 1M, 25 mg/ml HMB), the inhibition at 25000 µg/mL came out at 80%. In data set [5] (Human alphaherpesvirus 2, Vero, Exp. 1P, 20 mg/ml HMB), this molecule registered an inhibition at 20000 µg/mL of 91%.

(Values after patent US4902720A (priority 1988, dated 1990).)
